Patent EP4574175A1, “PRODRUG FOR ANTI-AGING RELATED DISEASES AND USE METHOD THEREFOR” (BEIJING SUNCELL BIO-MEDICAL CO., LTD., priority 2022, dated 2024)

Columns and labels:
[1] = target: T1, E. coli-derived β-galactosidase (Escherichia coli, UniProt P00722); experiment: In vitro enzymatic hydrolysis reaction monitored by HPLC; assay type: biochemical; conditions: 10 µM, PBS pH 7.3, 37°C, 6 hours
T1 construct: purchased Sigma
Procedure: The in vitro enzymatic hydrolysis reaction was carried out using E. coli-derived β-galactosidase (Sigma) in PBS solution (0.01 M, pH 7.3) at a reaction concentration of 10 µM for both A13 and A13bG, and for 6 hours at 37°C after the addition of β-galactosidase (10 U/µM). The hydrolysis reaction was monitored by the high performance liquid chromatography (HPLC). The compound A13 and the prodrug A13bG without enzyme reaction were analyzed by HPLC at the same conditions as the references. The chromatographic column model: Waters Acquity BEH C4, the conditions: 0.04 ml/min, (water (0.1% acetic acid)): the acetonitrile gradient elution: 98:2 1 min, 5:95 13 min, 5:95 18 min, 2:98 20 min.

[2] = test system: mouse model of oxygen-induced retinopathy; experiment: Oxygen-induced retinopathy mouse model; assay type: in vivo, C57BL6/J mice; conditions: single intravitreal injection on postnatal day 12, 50 ng and 100 ng, vs vehicle, IB4 staining at P17
Excerpt: Neonatal C57BL6/J mice were exposed to a 75% hyperoxia chamber (Shanghai Tow-Int Tech Co., Ltd., Ox-100HE) from the 7th to the 12th day after birth, together with the surrogate ICR female mice, and the mice were removed and placed in a normal air environment for feeding after 12 days. Hypoxia-induced abnormal vasoproliferative lesions persisted in the retina of the neonatal mice after they were fed under a hyperoxic condition and then transferred to a normoxic condition. This mouse lesion model mimics the retinal lesion characteristic of some human vision-related diseases, such as proliferative diabetic retinopathy.
Mice on postnatal day 12 were treated with the intravitreal administration of A13bGa1 or vehicle control in each eye of each mouse. […]
The extracted eyeballs of mice were firstly fixed with 4% paraformaldehyde for 1 hour at room temperature. The retina was carefully detached using the micro ophthalmic scissors and the micro forceps, and then placed in the pre-prepared fluorescence-labelled […] IB4 (Vector, FL-1201) staining solution, and stained overnight at 4 degrees Celsius away from light. Retinal sections were made after the completion of staining, and photographed using a confocal fluorescence microscope (Leica, TCS-SP8). Retinal microvascular stained sections were analyzed for the ischaemic areas and the abnormal neovascular areas using ImageJ (NIH, USA).

[3] = Plasma metabolic stability; assay type: in vitro ADME, human; conditions: Huamn plasma, 10 µM, 120 minutes
Procedure: (§1) Termination of the reaction was accomplished by the addition of 3x volume of acetonitrile and centrifugation at 16000 g for 20 minutes. The supernatant was taken for a LC-MS/MS analysis. The chromatographic column: Waters XSelect HSS T3; the flow rate: 500 µL/min; the eluent: A, water (0.1% formic acid); B, acetonitrile (0.1% formic acid); the gradient elution: 0-1.5 min, 5% B, 1.5-9 min, 5%-80% B, 9-12 min, 80%-100% B, 12-14 min, 100% B, 14-14.3 min, 100%-5% B, 14.3-15 min, 5% B.

[4] = Plasma metabolic stability; assay type: in vitro ADME; conditions: 10 µM, 120 minutes; for The peak area after normalisation at minute 120, peak 1 oxidative dehydrogenation: metabolite peak
Procedure: as §1

[5] = Hepatic microsomal metabolic stability; conditions: mouse
Procedure: […] Samples were taken and analyzed at time points 0, 15, 30, 45 and 60 minutes during the incubation. The reaction was terminated by adding an amount of acetonitrile solution containing the internal standard. […] The residual percentage, half-life, intrinsic clearance, amplified clearance, hepatic clearance and hepatic extraction ratio were determined. The entire experiment was performed in triplicate. All data calculations were performed by Microsoft Excel software. Peak areas were detected by extracting the ionic spectrum. The in vitro half-life (t1/2) of the parent compound was detected by fitting the natural logarithm of the percentage elimination of the parent compound linearly to time.
The in vitro intrinsic clearance (in µL/min/mg protein) was calculated using the following equation: in vitro CLint = kV/N
The amplified clearance (in mL/min/kg) was calculated using the following equation: Amplified CLint = kV/N × the amplification factor [formula]
The hepatic clearance (in mL/min/kg) was calculated using the following equation: The predicted hepatic CLH = (Q×Fu/RB×theamplifiedCLint)/([…]) [formula] • V = the incubation volume per well (0.2 mL); • N = the total amount of protein (mg) • Q = the hepatic blood flow (mL/min/kg) • Fu = the plasma free rate (assumed to be 1) • RB = the whole blood partition coefficient (assumed to be 1)
The hepatic […] was calculated using the following equation: The hepatic extraction ratio(ER) = (thepredictedhepaticCLH)/Q [formula]

[6] = Hepatic microsomal metabolic stability
[7] = Hepatic microsomal metabolic stability; remark: listed apart in the source
[8] = Hepatic microsomal metabolic stability; remark: listed apart in the source
[9] = test system: normal cells (HEF, HELF, BJ, A549, HUVEC, MRC5); experiment: Cell viability test (CCK-8) on normal uninduced cells, A13 vs A13bGa1; conditions: compared with parent compound A13
Procedure: (§2) Briefly, the human embryonic skin tissues and the fetal lung tissues obtained from the aborted tissues with the patient's informed consent were minced with the forcep and incubated in 1 mg/ml collagenase IV at 37°C for 1-2 hours. After the enzyme treatment, the cells were collected by centrifugation and resuspended in HEF medium (Dulbecco's modified Eagle medium (DMEM, Gibco) containing 10% fetal bovine serum (FBS, Ausbian), 1% GlutaMAX (Gibco), 1% non-essential amino acids (NEAA, Gibco) and 1% penicillin/streptomycin (Gibco). Gibco). Cells were plated on the 10 cm tissue culture dishes and grown in 10% FBS DMEM. […] They were passaged and cryopreserved according to Lonza's method. A549 cells, BJ cells and MRC5 cells were purchased from ATCC and cultured in DMEM medium containing 10% fetal bovine serum (FBS, Ausbian), and 1% penicillin/streptomycin (Gibco).
(§3) Cell Counting Kit-8 (CCK-8) assay was used to assess the cell viability. The senescent and non-senescent cells or chondrocytes were seeded into the 96-well plates and cultured overnight. The cells were then treated with control (0.05% DMSO) or different concentrations of the drug to be tested. […] Absorbance was measured at the wavelength of 450 nm.

[10] = test system: senescent HEF, HELF, BJ, A549, HUVEC and MRC5 cells; experiment: Cell viability test (CCK-8) on induced senescent cell models, A13 vs A13bGa1; conditions: Figures 3B-3G
Procedure: as §2, §3

T1 sequence (P00722 2-1024): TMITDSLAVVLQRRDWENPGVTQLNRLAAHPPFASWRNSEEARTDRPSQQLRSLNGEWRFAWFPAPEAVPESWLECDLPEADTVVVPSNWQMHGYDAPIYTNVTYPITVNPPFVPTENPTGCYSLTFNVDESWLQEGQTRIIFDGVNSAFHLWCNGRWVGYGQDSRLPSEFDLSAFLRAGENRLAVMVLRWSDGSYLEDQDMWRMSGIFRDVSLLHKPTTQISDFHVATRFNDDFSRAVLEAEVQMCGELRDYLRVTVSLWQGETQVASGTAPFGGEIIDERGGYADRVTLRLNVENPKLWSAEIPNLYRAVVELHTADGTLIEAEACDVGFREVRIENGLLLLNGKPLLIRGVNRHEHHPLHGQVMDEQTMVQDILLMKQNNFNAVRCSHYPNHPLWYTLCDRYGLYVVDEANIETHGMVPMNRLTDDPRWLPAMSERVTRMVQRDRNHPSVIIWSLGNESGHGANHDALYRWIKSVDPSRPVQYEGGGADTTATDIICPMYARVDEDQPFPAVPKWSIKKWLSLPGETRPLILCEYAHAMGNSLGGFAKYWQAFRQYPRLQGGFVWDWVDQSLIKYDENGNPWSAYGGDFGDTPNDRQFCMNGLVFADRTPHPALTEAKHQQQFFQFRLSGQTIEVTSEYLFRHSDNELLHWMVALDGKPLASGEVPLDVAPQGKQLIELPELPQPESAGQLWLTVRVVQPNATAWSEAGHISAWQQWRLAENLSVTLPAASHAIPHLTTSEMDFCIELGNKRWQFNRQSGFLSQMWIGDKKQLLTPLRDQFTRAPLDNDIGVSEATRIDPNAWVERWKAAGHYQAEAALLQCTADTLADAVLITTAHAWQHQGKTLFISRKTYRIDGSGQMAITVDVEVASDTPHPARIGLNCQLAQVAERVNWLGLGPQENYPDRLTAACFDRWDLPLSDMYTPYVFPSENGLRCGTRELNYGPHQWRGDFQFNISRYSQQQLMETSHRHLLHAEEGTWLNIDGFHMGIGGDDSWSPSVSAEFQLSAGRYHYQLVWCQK

SMILES: Cc1c(-c2ccc(N3CCc4cccc(C(=O)Nc5nc6ccccc6s5)c4C3)nc2C(=O)OCc2ccc(O[C@@H]3O[C@H](CO)[C@H](O)[C@H](O)[C@H]3O)c([N+](=O)[O-])c2)cnn1CC12CC3CC(CC(C3)C1)C2 [A13bGa1]
- hydrolysis by β-gal enzyme [1]: hydrolysed under the action of β-gal enzyme to release the parent compound A13
- area of the abnormal neovascular area [2]: significantly reduced
- area of the ischemic lesion area of the retina center [2]: significantly reduced
- The peak area after normalisation at minute 120, Initial drug A13bGa1 [3]: 99.93%
- The peak area after normalisation at minute 120, peak 1 oxidative dehydrogenation ([3]; metabolite peak): 0.07%
- The peak area after normalisation at minute 120, Initial drug A13bGa1 ([4]; Canine plasma): 99.52%
- The peak area after normalisation at minute 120, Initial drug A13bGa1 ([4]; Monkey plasma): 99.96%
- The peak area after normalisation at minute 120, Initial drug A13bGa1 ([4]; Mouse plasma): 99.96%
- The peak area after normalisation at minute 120, Initial drug A13bGa1 ([4]; Rat plasma): 99.87%
- The peak area after normalisation at minute 120, peak 1 oxidative dehydrogenation ([4]; Canine plasma): 0.48%
- The peak area after normalisation at minute 120, peak 1 oxidative dehydrogenation ([4]; Monkey plasma): 0.04%
- The peak area after normalisation at minute 120, peak 1 oxidative dehydrogenation ([4]; Mouse plasma): 0.04%
- The peak area after normalisation at minute 120, peak 1 oxidative dehydrogenation ([4]; Rat plasma): 0.13%
- The hepatic extraction ratio (E) [5]: 0.40
- CLint scaled at 1 µM ([5]; microsomes): 36.2 mL/min/kg
- microsomal CLint at 1 µM ([5]; microsomes): 13.8 µL/min/mg
- CLint scaled [6]: 17.9 mL/min/kg
- The hepatic extraction ratio (E) ([6]; human): 0.86
- The hepatic extraction ratio (E) ([7]; Monkey): 0.69
- microsomal CLint at 1 µM ([7]; monkey, microsomes): 65.3 µL/min/mg
- CLint scaled at 1 µM ([7]; monkey, microsomes, The amplified intrinsic clearance Cl int): 9800 mL/min/kg
- CLint scaled at 1 µM ([7]; monkey, microsomes, The predicted intrinsic hepatic clearance Cl int): 30.2 mL/min/kg
- The hepatic extraction ratio (E) ([8]; Canine): 0.70
- CLint scaled at 1 µM ([8]; dog, microsomes): 21.7 mL/min/kg
- microsomal CLint at 1 µM ([8]; dog, microsomes): 29.3 µL/min/mg
- toxicity to the normal cells [9]: greatly reduced
- overall killing activity on the senescent cells compared with parent compound [10]: somewhat reduced compared with that of the parent compound A13
- killing of the senescent cells ([10]; skin-derived fibroblasts, lung-derived cells, vascular endothelial-derived cells): highly efficient and selective in killing the senescent cells
